Results taken from PubChem BioAssay AID179 (DTP/NCI, 2004).
Activity calls are given as the source filed them.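 Rule for the calls: active = compounds giving half or more protection of infected cells from virus-caused growth loss, again on retest; inactive = the rest.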

Tested on: CEM cells HIV-1 protection, formazan growth assay
Test: NCI AIDS Antiviral Assay
Conditions: for IC50: measured here: growth of uninfected CEM cells
Method in brief: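 Category rules: moderately active means at least 50% protection on retest, and confirmed active means 100% protection reproducibly. The underlying data came from a formazan growth assay in HIV-1-infected CEM cells.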

| Compound | EC50 | IC50 | outcome |
| --- | --- | --- | --- |
| Cc1ccc2c(c1)[nH]c(=S)n2C=C(C(N)=O)C(N)=O | > 200 µM | > 200 µM |  |
| COC1(O)c2cccc(Cl)c2C(=O)N1C1(C(N)=O)CCCCC1 (stereo not given) |  |  | inactive |
| COc1cc(C(C2=C(O)c3ccccc3C(=O)C2=O)C2=C(O)c3ccccc3C(=O)C2=O)cc(OC)c1OC | > 200 µM | 72.4 µM |  |
| COC(=O)C(C(=O)C(=O)Nc1c(C)cccc1C)c1cnc2ccccc2n1 (stereo not given) | > 50.1 µM | > 50.1 µM |  |
| O=C(Nc1ccc(Cl)cc1Cl)C(=O)C(C(=O)c1ccncc1)C1OC(=O)c2ccccc21 (stereo not given) | > 178 µM | > 178 µM |  |
| CN(C=O)/C=C/c1cc(O)ccc1O |  |  | inactive |
| COc1cc(C2c3cc4c(cc3OC(NNS(=O)(=O)c3ccc(C)cc3)C2C)OCO4)cc(OC)c1O (stereo not given) |  |  | inactive |
| Cc1cc2c(s1)C(N)CC2=O (stereo not given) | > 200 µM | > 200 µM |  |
| CCC12C[N+]3([O-])CCc4c([nH]c5ccccc45)C(C(=O)OC)(c4cc5c(cc4OC)N(C)C4C(O)(C(=O)OC)C(OC(C)=O)C6(CC)C=CCN7CCC54C76)CC(C3)C1O2 (stereo not given) |  |  | inactive |
| CN(C)Cc1cc(N=Nc2ccc(Cl)cc2)ccc1O | > 20 µM | 13.5 µM |  |
| C/C(=N/NC(=O)c1ccccc1O)c1ccc(/C(C)=N\NC(=O)c2ccccc2O)c2nc3cc(C)c(C)cc3nc12 | > 64.6 µM | > 64.6 µM |  |
| NC(=O)c1cc(-c2ccc(-n3ccnc3)cc2)n[nH]c1=O | > 200 µM | 155 µM |  |
| CCC/C(=N\NC(=O)c1cc2ccccc2cc1O)C(CC)C(=O)CCC(=O)N(Cc1ccccc1)Cc1ccccc1 (stereo not given) | > 44.7 µM | > 44.7 µM |  |
| CCOP1(=O)OCC(C(C)(C)C)CO1 (stereo not given) | > 200 µM | > 200 µM |  |
| O=C(O)CCc1nn2c(nc1=O)sc1ccc3ccccc3c12 | > 50.1 µM | > 50.1 µM |  |
| COc1ccc(S(=O)(=O)Nc2ccccc2C(=O)O)cc1 |  |  | inactive |
| COC(=O)C[C@](O)(CCC(C)(C)O)C(=O)O[C@@H]1C(OC)=C[C@]23CCCN2CCc2cc4c(cc2[C@H]13)OCO4 |  |  | inactive |
| COc1cc2c(cc1OC)[C@H]1C(COC(=O)Nc3ccccc3)CN1CC2 (stereo not given in full) | > 676 µM | 93.3 µM |  |
| Cc1cc(Br)c(N2C3=C(CC4=C2CCCC4=O)C(=O)CCC3)c(Br)c1 | > 100 µM | 21.9 µM |  |
| COc1ncnc2c1ncn2C1OC(CO)CC1F (stereo not given) | > 186 µM | > 186 µM |  |
| COc1cnn(-c2ccccc2)c(=O)c1SCc1ccc(Cl)cc1 | > 52.5 µM | 30.9 µM |  |
| O=CNc1ccc(S(=O)(=O)c2ccc([N+](=O)[O-])cc2)cc1 | > 200 µM | 30.2 µM |  |
| CSCCC(NC(=O)OC(C)(C)C)C(=O)NCCNc1ccc(NCCNC(=O)C(CCSC)NC(=O)OC(C)(C)C)c2c1C(=O)c1ccccc1C2=O (stereo not given) | > 100 µM | > 100 µM |  |

| Compound | EC50 | IC50 | outcome |
| --- | --- | --- | --- |
| CCN(CC)C1CC(O[C@H]2C[C@](O)(C(=O)CO)Cc3c(O)c4c(c(O)c32)C(=O)c2c(OC)cccc2C4=O)OC(C)C1O (stereo not given in full) |  |  | inactive |
| C=C(C)C12CC3/C(=N\O)C(C1)C(C)C(/C3=N\O)[C@@]2(C)O (stereo not given in full) | > 200 µM | > 200 µM |  |
| N#C/C(=C\NC(=S)c1ccncc1)c1nc2ccccc2s1 | > 200 µM | 145 µM |  |
| CC(C)[C@@H]1CC[C@@H](C)C[C@H]1OC(=O)/C=C1/C2C=CC(O2)C1C(=O)O[C@@H]1C[C@H](C)CC[C@H]1C(C)C (stereo not given in full) | > 200 µM | > 200 µM |  |
| CSc1nc2[nH]c(=O)n(OS(=O)(=O)c3ccccc3)c(=O)c2n1Cc1ccccc1 | > 200 µM | 105 µM |  |
| CC(=O)Nc1ccc(S(=O)(=O)N/N=C/c2ccco2)cc1 | > 589 µM | 309 µM |  |
| Cn1c(=O)c(-c2ccccc2)c(O)c2ccccc21 | > 200 µM | > 200 µM |  |
| O=C1c2cc3c(cc2NC(c2ccccc2F)C1O)OCO3 (stereo not given) | > 200 µM | 12 µM |  |
| O=C(O)Cc1ccc(-c2cn3c(n2)sc2ccccc23)cc1 | > 200 µM | > 200 µM |  |
| O=C1O[C@H]2C3C4CCC(C4[C@@H]2I)[C@H]13 (stereo not given in full) | > 200 µM | > 200 µM |  |
| O=C(NN1CCCCCC1)NS(=O)(=O)c1ccc(Cl)cc1 | > 200 µM | > 200 µM |  |
| CCC(C)C1C(=O)ON=C1N (stereo not given) | > 200 µM | > 200 µM |  |
| CC#CCC1CCC(OCC)=CC1=O (stereo not given) |  |  | inactive |
| COc1cc2c[n+]3ccc4cc(OC)c(OC)cc4c3cc2cc1O |  |  | inactive |
| NNC(=O)CNC(=O)CSc1nnc(COc2ccc(Cl)cc2)n1-c1ccccc1 | > 200 µM | 56.2 µM |  |
| O/N=C/c1ncccc1C1OCCO1 | > 257 µM | 141 µM |  |
| Cc1ccc(C2CC(c3ccco3)=NN2c2ccccc2)o1 (stereo not given) | > 17.8 µM | > 17.8 µM |  |
| COc1ccc(C(=O)c2ccccc2O)c(O)c1 | > 200 µM | > 100 µM |  |
| O=C1NN=C2CCCCCC12 (stereo not given) | > 589 µM | > 589 µM |  |
| Cc1ccc(N2C(=O)N(c3ccc(C)cc3)C3(SC=NN3C)C2=O)cc1 (stereo not given) |  |  | inactive |
| Cc1ccc2c(c1)C(=O)N(N(C)C)CC(=O)N2 |  |  | inactive |
| O=C1NC(=O)C(c2ccccc2)(c2ccccc2)N1 | > 372 µM | > 372 µM |  |
| CC#N.CC#N.COC(=O)[C@H]1COC(=O)[N-]1.COC(=O)[C@H]1COC(=O)[N-]1.COC(=O)[C@H]1COC(=O)[N-]1.COC(=O)[C@H]1COC(=O)[N-]1.[Rh+2].[Rh+2] | > 200 µM | > 200 µM |  |

| Compound | EC50 | IC50 | outcome |
| --- | --- | --- | --- |
| CC1(C)N=C(/C(Cl)=[N+](/[O-])C(=O)c2ccc(Cl)cc2)C(C)(C)N1O | > 100 µM | 8.91 µM |  |
| Cc1ccc(C(O)/C(=N/N)c2nc3ccc([N+](=O)[O-])cc3[nH]c2=O)cc1 (stereo not given) | > 537 µM | 457 µM |  |
| O=C(O)C1(C(O)c2ccccc2)SCCCS1 (stereo not given) | > 200 µM | > 200 µM |  |
| O=C(NC1CCCCC1)NC12CC3CC(CC(F)(C3)C1)C2 | > 45.7 µM | > 45.7 µM |  |
| COc1ccc2c(c1)c1c(n2CCN(C)C)-c2cccc(OC)c2CC1 | > 200 µM | 11 µM |  |
| CN(NC(=O)CCCl)C1=NCCN1 | > 200 µM | > 200 µM |  |
| CC1(C)C2CCC(O)(C2)C1N (stereo not given) | > 200 µM | > 200 µM |  |
| O=c1[nH]c2ccccc2c(O)c1-[n+]1ccccc1 | > 200 µM | > 200 µM |  |
| COc1cc(C(=O)Oc2c(C(C)=O)sc3c2c(=O)n(-c2ccccc2)c(=S)n3-c2ccccc2)cc(OC)c1OC | > 200 µM | 1.1 µM |  |
| OC1CC1Sc1ccccc1 (stereo not given) |  |  | inactive |
| OC12OC3(c4ccc(C(F)(F)F)cc4)C4C5CC(C6C5C3C61)C42 (stereo not given) |  |  | inactive |
| OC[C@H]1CC(c2nn[nH]n2)[C@H](O)[C@@H]1O (stereo not given in full) | > 200 µM | > 200 µM |  |
| O=C(Cc1ccccc1)NN1C(=O)/C(=C\c2ccc([N+](=O)[O-])cc2)SC1=Nc1ccccc1 | > 56.2 µM | > 56.2 µM |  |
| O=[N+]([O-])CCc1cccc([N+](=O)[O-])c1 | > 1260 µM | > 1260 µM |  |
| COC(=O)C1CCc2nnc(-c3ccccc3)n21 (stereo not given) | 955 µM | 1020 µM |  |
| CCOC(=O)Cc1cc(=O)n(C)c2ccccc12 | > 200 µM | > 200 µM |  |
| CC[N+](C)(CC)CCSC1=Nc2ccccc2N=C(c2ccc(Sc3ccccc3)cc2)C1 | > 200 µM | 6.76 µM |  |
| Nc1c2ccccc2nc2nccnc12 | > 26.3 µM | > 26.3 µM |  |
| O=C(c1nc2ccc(Cl)cc2[nH]c1=O)C(O)c1ccc2c(c1)OCO2 (stereo not given) | > 501 µM | 24.5 µM |  |
| CCOC(=O)C1=C(C)OC(=O)[C@@]2(OC)C=C(Cl)[C@@]12C | > 200 µM | > 200 µM |  |
| O=C(c1cc(O)c(O)c(O)c1)c1ccc(O)c(O)c1O | > 200 µM | 3.98 µM |  |
| O=S1(=O)C(c2ccccc2)=C(O)c2cc3ccccc3nc21 |  |  | inactive |
| Nc1nc(Cl)cc(OCC2(CO)CCCCC2)n1 | > 200 µM | 53.7 µM |  |

| Compound | EC50 | IC50 | outcome |
| --- | --- | --- | --- |
| NC(=O)Nc1ccc(C(=O)NCCCNC(=O)c2ccc(NC(N)=O)cc2)cc1 | > 200 µM | > 200 µM |  |
| CC/C=C\C/C=C\C/C=C\CCCCCCCC(=O)OCC | > 200 µM | 105 µM |  |
| O=c1[nH]c2ccc(CC(=S)N3CCN(c4ccccc4)CC3)cc2o1 | > 200 µM | > 200 µM |  |
| Nc1ccc2oc(=O)ccc2c1 | > 1260 µM | 8.91 µM |  |
| CC1=C(O)C(=O)C2C(=O)C1C(C)C2c1ccc(Cl)cc1 (stereo not given) | > 123 µM | > 123 µM |  |
| COc1ccc2c(c1)CCN=C2Cc1cc(OC)c(OC)cc1CCCl | > 200 µM | 53.7 µM |  |
| Nc1c(F)c(F)c2c(c1F)N(CCCCCl)c1ccccc1S2 | > 200 µM | 21.9 µM |  |
| Nc1ccc(/C=C/c2ccc(N)cc2S(=O)(=O)O)c(S(=O)(=O)O)c1 |  |  | inactive |
| O=c1[nH]nc(Cc2ccc(Cl)cc2)n1CCO | > 200 µM | > 200 µM |  |
| COc1nc(NC2OC(CO)C(O)C(O)C2O)cc(=O)n1C (stereo not given) |  |  | inactive |
| N#CC(C#N)=C(N)/C(C#N)=C/c1cc(O)c(O)c(Br)c1 | > 77.6 µM | > 77.6 µM |  |
| CN(C)c1ccc(/C=C(\C#N)C(N)=C(C#N)C#N)cc1 | 132 µM | > 200 µM |  |
| CC1OCC2OC(C)OC(C3C4=C(CC(C)(C)CC4=O)OC4=C3C(=O)CC(C)(C)C4)C2O1 (stereo not given) | > 562 µM | 550 µM |  |
| COc1ccc2c(c1)C(C)(C)Oc1cc3oc(C(=O)O)cc(=O)c3cc1-2 | > 355 µM | > 355 µM |  |
| O=[N+]([O-])c1ccc2nc(-c3ccccn3)c(-c3ccccn3)nc2c1 | > 200 µM | > 200 µM |  |
| N[C@@H](C[S-])C(=O)O.O=[N+]([O-])O.[Ag+] | > 200 µM | 126 µM |  |
| Cc1ccc2ccc3c(-c4ccccc4)cc(C)nc3c2n1 | > 20 µM | 3.31 µM |  |
| COc1ccc(/C=C2\c3cc(OC)c(OC)cc3CCN2C(=O)c2ccccc2)cc1OC | > 200 µM | 57.5 µM |  |
| CC1CCC(C(C)C)/C(=N/NC(=O)CC#N)C1 (stereo not given) | > 200 µM | > 200 µM |  |
| COC(=O)CSSCC(=O)OC |  |  | inactive |
| COc1ccc(OC)c(C[P+](c2ccccc2)(c2ccccc2)c2ccccc2)c1 | > 200 µM | 1.2 µM |  |
| O=C1C=C(NCCc2ccccc2)c2ccccc2C1=O | > 36.3 µM | 25.1 µM |  |
